Experimental data taken from patent US12252524B2, “GIP/GLP1 co-agonist compounds” (Eli Lilly and Company, priority 2018, dated 2025).
Numbered stars: 1 amine (or outer) side, 2 acyl side, 3 side chain; on linkers, the order of the positions; unused ones are H or OH. Square brackets hold non-standard residues; d marks the D form. Side chains are listed from the residue outwards. Peptide text beside a SMILES is read from it. * marks the point of attachment. C20 diacid = O=C(O)CCCCCCCCCCCCCCCCCCC(=O)*; C18 diacid = O=C(O)CCCCCCCCCCCCCCCCC(=O)*; αMePhe(2-F) = C[C@](N)(Cc1ccccc1F)C(=O)O; γGlu = O=C(O)[C@H](CCC(=O)[*:2])N[*:1]; αMeY = C[C@](N)(Cc1ccc(O)cc1)C(=O)O; αMeF = C[C@](N)(Cc1ccccc1)C(=O)O; αMeL = CC(C)C[C@](C)(N)C(=O)O; Orn = NCCC[C@H](N)C(=O)O; AEEA = NCCOCCOCC(=O)O; Aib = CC(C)(N)C(=O)O

How the values were obtained:
human GIP receptor = target: T1, human GIP receptor (Homo sapiens, UniProt P48546); assay: [125I]-GIP binding (SPA), human GIP receptor; settings: read-out: hGIPR Ki, nM (SEM, n)
T1 construct: expressed in transfected cells; crude membranes
T1 sequence (P48546 22-466): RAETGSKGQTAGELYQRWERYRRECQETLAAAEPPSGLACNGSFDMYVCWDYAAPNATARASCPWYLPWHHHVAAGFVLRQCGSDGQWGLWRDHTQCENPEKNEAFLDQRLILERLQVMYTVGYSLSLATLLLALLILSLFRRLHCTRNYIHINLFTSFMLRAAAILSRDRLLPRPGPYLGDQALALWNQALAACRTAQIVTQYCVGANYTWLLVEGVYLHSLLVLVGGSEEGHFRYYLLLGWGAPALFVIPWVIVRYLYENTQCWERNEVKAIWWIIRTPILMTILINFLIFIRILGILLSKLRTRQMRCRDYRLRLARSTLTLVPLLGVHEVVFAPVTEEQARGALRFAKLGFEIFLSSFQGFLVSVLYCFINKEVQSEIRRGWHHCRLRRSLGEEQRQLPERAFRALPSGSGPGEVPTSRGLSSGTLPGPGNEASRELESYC

[1] = target: T2, gastric inhibitory peptide receptor (GIPR) (Homo sapiens, UniProt P48546); assay: cAMP pharmacological functional assay in presence of casein, hGIPR; format: cell-based; settings: HEK293 cells expressing hGIPR, 0.1% Casein, geometric mean; read-out: hGIPR cAMP Rel EC50 nM (SEM, n)
T2 sequence (P48546 22-466): T1 sequence (P48546 22-466)

human GLP-1R = human GLP-1R (Homo sapiens, UniProt P43220); assay: [125I]-GLP-1 binding (SPA), human GLP-1 receptor; design: expressed in transfected cells; crude membranes; settings: read-out: hGLP1R Ki, (nM) (SEM, n)
Method in brief: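 Assay buffer: HEPES 25 mM, pH 7.4, CaCl2 2.5 mM, MgCl2 1 mM, with EDTA-free protease inhibitors. Receptor came from crude cell membranes prepared by homogenization and centrifugation at 4° C. IC50s came from four-parameter fits (maximum, minimum, IC50, Hill slope) and were expressed as Ki geometric means with SEM.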

[2] = target: human GLP-1 receptor (GLP-1R) (Homo sapiens, UniProt P43220); assay: cAMP pharmacological functional assay in presence of casein, hGLP-1R; format: cell-based; settings: HEK293 cells expressing hGLP-1R, 0.1% Casein, geometric mean; read-out: hGLP1R cAMP Rel EC50 nM (SEM, n)
human Gcg receptor = target: T3, human Gcg receptor (Homo sapiens, UniProt P47871); assay: [125I]-Glucagon binding (SPA), human Gcg receptor; settings: read-out: hGLcgR Ki, nM (SEM, n)
T3 construct: expressed in transfected cells; crude membranes
Method in brief: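 Scintillation counts are taken after membranes and WGA beads incubate and settle for 12 hours at room temperature. Buffer is 25 mM HEPES, pH 7.4, with CaCl2, MgCl2, bacitracin and Tween-20. Ki values, from four-parameter IC50 fits, are geometric means over independent days.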

T3 sequence (P47871 26-477): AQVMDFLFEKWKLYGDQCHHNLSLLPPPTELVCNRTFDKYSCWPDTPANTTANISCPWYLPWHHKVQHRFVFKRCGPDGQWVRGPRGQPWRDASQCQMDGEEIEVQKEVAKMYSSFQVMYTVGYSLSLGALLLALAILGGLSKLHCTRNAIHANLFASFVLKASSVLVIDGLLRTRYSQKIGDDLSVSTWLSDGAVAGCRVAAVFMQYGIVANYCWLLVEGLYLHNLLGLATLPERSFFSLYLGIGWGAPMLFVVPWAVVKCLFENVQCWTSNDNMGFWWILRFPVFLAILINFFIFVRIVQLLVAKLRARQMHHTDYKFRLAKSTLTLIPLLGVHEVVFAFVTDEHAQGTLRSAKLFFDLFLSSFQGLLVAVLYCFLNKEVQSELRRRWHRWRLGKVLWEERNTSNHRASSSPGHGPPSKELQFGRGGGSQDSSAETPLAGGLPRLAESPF
Sequence of human GLP-1R (P43220 24-463): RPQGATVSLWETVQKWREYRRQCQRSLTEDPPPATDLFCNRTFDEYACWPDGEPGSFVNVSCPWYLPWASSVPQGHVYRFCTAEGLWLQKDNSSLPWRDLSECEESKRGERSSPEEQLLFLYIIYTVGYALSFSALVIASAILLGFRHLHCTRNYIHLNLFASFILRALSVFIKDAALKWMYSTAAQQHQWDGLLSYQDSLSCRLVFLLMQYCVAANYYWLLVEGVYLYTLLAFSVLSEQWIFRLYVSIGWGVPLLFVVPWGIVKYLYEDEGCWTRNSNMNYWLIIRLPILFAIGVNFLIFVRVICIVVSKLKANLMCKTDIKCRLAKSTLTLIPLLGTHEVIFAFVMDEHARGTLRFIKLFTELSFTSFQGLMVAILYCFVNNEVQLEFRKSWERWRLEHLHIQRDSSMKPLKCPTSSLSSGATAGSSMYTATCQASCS
Sequence of human GLP-1 receptor (GLP-1R) (P43220 24-463): as above

Row | Compound | Ki (human GIP receptor) [nM] | EC50 [1] [nM] | Ki (human GLP-1R) [nM] | EC50 [2] [nM] | Ki (human Gcg receptor) [nM]
1 | CC[C@H](C)[C@H](NC(=O)[C@H](CC(C)C)NC(=O)[C@H](Cc1ccc(O)cc1)NC(=O)[C@H](CCC(=O)O)NC(=O)[C@@H](NC(=O)[C@H](Cc1ccccc1)NC(=O)[C@H](CO)NC(=O)C(C)(C)NC(=O)[C@H](CCC(N)=O)NC(=O)[C@H](C)NC(=O)[C@H](CCCCNC(=O)COCCOCCNC(=O)COCCOCCNC(=O)CC[C@H](NC(=O)CCCCCCCCCCCCCCCCCCC(=O)O)C(=O)O)NC(=O)[C@H](CCCCN)NC(=O)[C@H](CC(=O)O)NC(=O)[C@H](CC(C)C)NC(=O)[C@](C)(CC(C)C)NC(=O)[C@@H](NC(=O)[C@H](CO)NC(=O)[C@H](Cc1ccc(O)cc1)NC(=O)[C@H](CC(=O)O)NC(=O)[C@H](CO)NC(=O)[C@@H](NC(=O)[C@](C)(Cc1ccccc1)NC(=O)[C@@H](NC(=O)CNC(=O)[C@H](CCC(=O)O)NC(=O)C(C)(C)NC(=O)[C@@H](N)Cc1ccc(O)cc1)[C@@H](C)O)[C@@H](C)O)[C@@H](C)CC)[C@@H](C)CC)C(=O)N[C@@H](CCC(=O)O)C(=O)NCC(=O)NCC(=O)N1CCC[C@H]1C(=O)N[C@@H](CO)C(=O)N[C@@H](CO)C(=O)NCC(=O)N[C@@H](C)C(=O)N1CCC[C@H]1C(=O)N1CCC[C@H]1C(=O)N1CCC[C@H]1C(=O)N[C@@H](CO)C(N)=O [Example 138] (H-Y[Aib]EGT[αMeF]TSDYSI[αMeL]LDKK([AEEA-AEEA-γGlu-C20 diacid])AQ[Aib]SFIEYLIEGGPSSGAPPPS-NH2; N-terminus assumed) | 0.0295 | 0.0581 | 0.926 | 0.0471 | 61.2
2 | CC[C@H](C)[C@H](NC(=O)[C@H](CC(C)C)NC(=O)[C@H](Cc1ccc(O)cc1)NC(=O)[C@@H](CCC(=O)O)NC(=O)[C@@H](NC(=O)[C@H](Cc1ccccc1)NC(=O)[C@H](CCC(=O)O)NC(=O)C(C)(C)NC(=O)[C@H](CCC(N)=O)NC(=O)[C@H](C)NC(=O)[C@H](CCCCNC(=O)COCCOCCNC(=O)COCCOCCNC(=O)CC[C@H](NC(=O)CCCCCCCCCCCCCCCCC(=O)O)C(=O)O)NC(=O)[C@H](CCC(=O)O)NC(=O)[C@H](CC(=O)O)NC(=O)[C@H](CC(C)C)NC(=O)[C@](C)(CC(C)C)NC(=O)[C@@H](NC(=O)[C@H](CO)NC(=O)[C@H](Cc1ccc(O)cc1)NC(=O)[C@H](CC(=O)O)NC(=O)[C@H](CO)NC(=O)[C@@H](NC(=O)[C@](C)(Cc1ccccc1)NC(=O)[C@@H](NC(=O)CNC(=O)[C@H](CCC(=O)O)NC(=O)C(C)(C)NC(=O)[C@@H](N)Cc1ccc(O)cc1)[C@@H](C)O)[C@@H](C)O)[C@@H](C)CC)[C@@H](C)CC)C(=O)N[C@@H](CCC(=O)O)C(=O)NCC(=O)NCC(=O)N1CCC[C@H]1C(=O)N[C@@H](CO)C(=O)N[C@@H](CO)C(=O)NCC(=O)N[C@@H](C)C(=O)N1CCC[C@H]1C(=O)N1CCC[C@H]1C(=O)N1CCC[C@H]1C(=O)N[C@@H](CO)C(N)=O [Example 213] (H-Y[Aib]EGT[αMeF]TSDYSI[αMeL]LDEK([AEEA-AEEA-γGlu-C18 diacid])AQ[Aib]EFI[dE]YLIEGGPSSGAPPPS-NH2) | 0.365 | 0.0523 | 2.75 | 0.071 | 544
3 | CC[C@H](C)[C@H](NC(=O)[C@H](CC(C)C)NC(=O)[C@](C)(Cc1ccc(O)cc1)NC(=O)[C@@H](CCC(=O)O)NC(=O)[C@@H](NC(=O)[C@H](Cc1ccccc1)NC(=O)[C@@H](NC(=O)C(C)(C)NC(=O)[C@H](CCC(N)=O)NC(=O)[C@H](C)NC(=O)[C@H](CCCCNC(=O)COCCOCCNC(=O)COCCOCCNC(=O)CC[C@H](NC(=O)CCCCCCCCCCCCCCCCC(=O)O)C(=O)O)NC(=O)[C@H](CCCN)NC(=O)[C@H](CC(=O)O)NC(=O)[C@H](CC(C)C)NC(=O)[C@](C)(CC(C)C)NC(=O)[C@@H](NC(=O)[C@H](CO)NC(=O)[C@H](CC(C)C)NC(=O)[C@H](CC(=O)O)NC(=O)[C@H](CO)NC(=O)[C@@H](NC(=O)[C@](C)(Cc1ccccc1F)NC(=O)[C@@H](NC(=O)CNC(=O)[C@H](CCC(=O)O)NC(=O)C(C)(C)NC(=O)[C@@H](N)Cc1ccc(O)cc1)[C@@H](C)O)[C@@H](C)O)[C@@H](C)CC)[C@@H](C)O)[C@@H](C)CC)C(=O)N[C@@H](CCC(=O)O)C(=O)NCC(=O)NCC(=O)N1CCC[C@H]1C(=O)N[C@@H](CO)C(=O)N[C@@H](CO)C(=O)NCC(=O)N[C@@H](C)C(=O)N1CCC[C@H]1C(=O)N1CCC[C@H]1C(=O)N1CCC[C@H]1C(=O)N[C@@H](CO)C(N)=O [Example 243] (H-Y[Aib]EGT[αMePhe(2-F)]TSDLSI[αMeL]LD[Orn]K([AEEA-AEEA-γGlu-C18 diacid])AQ[Aib]TFI[dE][αMeY]LIEGGPSSGAPPPS-NH2) | 0.0325 | 0.0214 | 0.67 | 0.0265 | 145
4 | CC[C@H](C)[C@H](NC(=O)[C@H](CC(C)C)NC(=O)[C@H](Cc1ccc(O)cc1)NC(=O)[C@H](CCC(=O)O)NC(=O)[C@@H](NC(=O)[C@H](Cc1ccccc1)NC(=O)[C@H](C)NC(=O)C(C)(C)NC(=O)[C@H](CCC(N)=O)NC(=O)[C@H](CCCCNC(=O)COCCOCCNC(=O)COCCOCCNC(=O)CC[C@H](NC(=O)CCCCCCCCCCCCCCCCCCC(=O)O)C(=O)O)NC(=O)[C@@H](NC(=O)[C@H](CCCCN)NC(=O)[C@H](CC(=O)O)NC(=O)[C@H](CC(C)C)NC(=O)[C@H](CC(C)C)NC(=O)[C@@H](NC(=O)[C@H](CO)NC(=O)[C@H](Cc1ccc(O)cc1)NC(=O)[C@H](CC(=O)O)NC(=O)[C@H](CO)NC(=O)[C@@H](NC(=O)[C@H](Cc1ccccc1)NC(=O)[C@@H](NC(=O)CNC(=O)[C@H](CCC(=O)O)NC(=O)C(C)(C)NC(=O)[C@@H](N)Cc1ccc(O)cc1)[C@@H](C)O)[C@@H](C)O)[C@@H](C)CC)[C@@H](C)CC)[C@@H](C)CC)C(=O)N[C@@H](CCC(=O)O)C(=O)NCC(=O)NCC(=O)N1CCC[C@H]1C(=O)N[C@@H](CO)C(=O)N[C@@H](CO)C(=O)NCC(=O)N[C@@H](C)C(=O)N1CCC[C@H]1C(=O)N1CCC[C@H]1C(=O)N1CCC[C@H]1C(=O)N[C@@H](CO)C(N)=O [Example 30] (H-Y[Aib]EGTFTSDYSILLDKIK([AEEA-AEEA-γGlu-C20 diacid])Q[Aib]AFIEYLIEGGPSSGAPPPS-NH2) | 0.151 | 0.114 | 6.2 | 1.84 | 123
5 | CC[C@H](C)[C@H](NC(=O)[C@H](CC(C)C)NC(=O)[C@H](Cc1ccc(O)cc1)NC(=O)[C@H](CCC(=O)O)NC(=O)[C@@H](NC(=O)[C@](C)(Cc1ccccc1)NC(=O)[C@H](C)NC(=O)C(C)(C)NC(=O)[C@H](CCC(N)=O)NC(=O)[C@H](C)NC(=O)[C@H](CCCCNC(=O)COCCOCCNC(=O)COCCOCCNC(=O)CC[C@H](NC(=O)CCCCCCCCCCCCCCCCCCC(=O)O)C(=O)O)NC(=O)[C@H](CCCCN)NC(=O)[C@H](CC(=O)O)NC(=O)[C@H](CC(C)C)NC(=O)[C@](C)(CC(C)C)NC(=O)[C@@H](NC(=O)[C@H](CO)NC(=O)[C@H](Cc1ccc(O)cc1)NC(=O)[C@H](CC(=O)O)NC(=O)[C@H](CO)NC(=O)[C@@H](NC(=O)[C@](C)(Cc1ccccc1)NC(=O)[C@@H](NC(=O)CNC(=O)[C@H](CCC(=O)O)NC(=O)C(C)(C)NC(=O)[C@@H](N)Cc1ccc(O)cc1)[C@@H](C)O)[C@@H](C)O)[C@@H](C)CC)[C@@H](C)CC)C(=O)N[C@@H](CCC(=O)O)C(=O)NCC(=O)NCC(=O)N1CCC[C@H]1C(=O)N[C@@H](CO)C(=O)N[C@@H](CO)C(=O)NCC(=O)N[C@@H](C)C(=O)N1CCC[C@H]1C(=O)N1CCC[C@H]1C(=O)N1CCC[C@H]1C(=O)N[C@@H](CO)C(N)=O [Example 76] | 0.0659 | 0.124 | 2.64 | 0.125 | 14.4
